Measurements as given in US9796697B2, “Tricyclic inhibitors of HIF-2-alpha and uses thereof” (Peloton Therapeutics, Inc., priority 2015, dated 2017).

Assays:
[1] = target: T1, HIF-2α HIS TAG-PASB Domain (Homo sapiens, UniProt Q99814); test: HIF-2α Scintillation Proximity Assay (SPA); assay type: binding; conditions: displacement of tritiated probe N-(3-Chlorophenyl-4,6-t2)-4-nitrobenzo[c][1,2,5]oxadiazol-5-amine from HIF-2α PASB domain
T1 construct: 100 nM HIF-2α HIS TAG-PASB Domain
Method: Example 8: HIF-2α Scintillation Proximity Assay (SPA)
The total assay volume was about 100 μL in the following configuration: 2 μL compound in 100% DMSO, 88 μL buffer with protein and probe and 10 μL of SPA beads. The compound was diluted in a master plate consisting of a 10-point dose response with a 3-fold compound dilution from 100 μM to 5 nM. Assays were run on a 96-well plate in which one column, designated as the high signal control, contained DMSO with no compound and another column, designated as the low signal control, contained no protein. Prior to plating out of compound, a buffer solution, consisting of 25 mM TRIS pH 7.5 (Sigma), 150 mM NaCl (Sigma), 15% Glycerol (Sigma), 0.15% BSA (Sigma), 0.001% Tween-20 (Sigma), 150 nM N-(3-Chlorophenyl-4,6-t2)-4-nitrobenzo[c][1,2,5]oxadiazol-5-amine and 100 nM HIF-2α HIS TAG-PASB Domain, was made and allowed to equilibrate for 30 minutes. Compounds that were to be tested were then plated in to a 96-well white clear bottom Isoplate-96 SPA plate (Perkin Elmer). To the compounds was added 88 μL of the buffer solution, then the plate covered with a plastic cover and aluminum foil, placed onto a shaker and equilibrated for 1 hour. After equilibration, 10 μL of a 2 mg/mL solution of YSi Cu His tagged SPA beads (Perkin Elmer) were then added to each well of the plate, covered and equilibrated for another 2 hours. The plates were then removed from the shaker, placed into a 1450 LSC and luminescence counter MicroBeta Trilux (Perkin Elmer) to measure the extent of probe displacement. The percent inhibition was determined and IC50 values were calculated using the Dotmatics system based on the following equation: % inhibition=[(high control−sample)/(high control−low control)]×100.

786-O-Hif-Luc cells = test: Luciferase Assay; assay type: cell-based; conditions: HIF responsive element luciferase reporter, about 24 hours
Method: Example 10: Luciferase Assay
786-O-Hif-Luc single clone cells were obtained by infecting 786-0 cells (ATCC® CRL-1932™) with commercial lentivirus that delivers a luciferase gene driven by multiple HIF responsive elements (Cignal Lenti HIF Reporter (luc): CLS-007L, Qiagen) at Multiplicity of Infection (MOI) of 25 for 24 hours. The cells were replenished with fresh medium (Dulbecco's Modified Eagle's Medium (DMEM, D5796, Sigma) supplemented with 10% FBS (F6178, Sigma), 100 units penicillin and 100 μg streptomycin/mL (P4333, Sigma)) for another 24 hours. A pool of infected cells were then selected against 2 μg/mL of puromycin (P8833, Sigma) for 10 days followed by limited dilution to select single clones. […] For the luciferase assay, about 7500 786-O-Hif-Luc cells in 90 μL growth medium were seeded into each well of a 96-well white opaque plate (08-771-26, Fisher scientific) a day before treatment with the layout presented in FIG. 2.
On treatment day, serial dilutions of 10× compound stocks were made in growth medium from 500×DMSO stocks, and 10 μL, of the 10× stocks were added to each well to make final concentrations as follows GAM): 20, 6.67, […], 0.74, 0.25, 0.08, 0.027, 0.009, 0.003, 0.001, and 0. Each concentration was tested in triplicate. After about 24 hours, luciferase activity was determined using ONE-Glo Luciferase Assay Reagent (E6110, Promega) following the manufacturer's recommended procedure. EC50 were calculated using Dotmatics software.

786-O cells = test: VEGF ELISA Assay; assay type: cell-based; conditions: Homo sapiens, 786-0; VEGF concentration in culture medium of 786-O cells
Method: Example 9: VEGF ELISA Assay
About 7500 786-O cells in 180 μL of growth medium were seeded into each well of a 96-well, white, clear bottom plate (07-200-566, Fisher Scientific) on day one in the layout presented in FIG. 1.
Four hours later, serial dilutions of 10× compound stocks were made in growth medium from 500×DMSO stocks, and 20 μL of those 10× stocks were added to each well to make final concentrations as follows (μM): 20, 6.67, 2.22, 0.74, 0.25, 0.082, 0.027, 0.009, 0.003, 0.001, and 0. Each concentration was plated in duplicate. About 20 hours later, medium was removed by suction and each well was supplied with 180 μL of growth medium. About 20 μl freshly-made 10× compound stocks were added to each well. […] The EC50 was calculated by GraphPad Prism using the dose-response-inhibition (four parameter) equation. The cell-seeded plate was then subjected to CellTiter-Glo luminescence cell viability assay (Promega) by adding 50 μL of Celltiter Glo reagent into each well and shaking the plate for 8 minutes at 550 rpm (Thermomixer R, Eppendorf) then the luminescence signal immediately read in a plate reader (3 second delay, 0.5 second/well integration time, Synergy 2 multi Detection Microplate reader).

T1 sequence (Q99814 239-348): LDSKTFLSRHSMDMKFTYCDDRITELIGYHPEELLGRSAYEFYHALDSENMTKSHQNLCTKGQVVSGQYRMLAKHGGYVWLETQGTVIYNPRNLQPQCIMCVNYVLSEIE

Row | Structure (SMILES) | EC50 [1] | EC50 (786-O-Hif-Luc cells) | EC50 (786-O cells)
1 | N#Cc1cc(F)cc(Oc2ccc3c4c2C(F)CC4(F)CS3(=O)=O)c1 (centres unmarked) [Compound 1] | > 1000 nM | – | –
2 | N#Cc1cncc(Oc2ccc3c4c2C(F)CC4(F)C(F)(F)S3(=O)=O)c1 (centres unmarked) [Compound 2] | > 1000 nM | – | –
3 | C=C1CC2(N)c3c(ccc(Oc4cc(F)cc(C#N)c4)c31)S(=O)(=O)C2(F)F (centres unmarked) [Compound 3, 3-((2a-amino-2,2-difluoro-4-methylene-1,1-dioxido-2,2a,3,4-tetrahydroindeno[7,1-bc]thiophen-5-yl)oxy)-5-fluorobenzonitrile] | 50 to 249 nM | 250 to 1000 nM | –
4 | N#Cc1cc(F)cc(Oc2ccc3c4c2CCC4(O)C(F)(F)S3(=O)=O)c1 (centres unmarked) [Compound 4] | 50 to 249 nM | 50 to 249 nM | –
5 | N#Cc1cc(F)cc(Oc2ccc3c4c2C(F)C(F)C4(O)CS3(=O)=O)c1 (centres unmarked) [Compound 5] | > 1000 nM | > 1000 nM | –
6 | N#Cc1cc(F)cc(Oc2ccc3c4c2C(F)CC4(O)C(F)(F)S3(=O)=O)c1 (centres unmarked) [Compound 6, 3-fluoro-5-((2,2,4-trifluoro-2a-hydroxy-1,1-dioxido-2,2a,3,4-tetrahydroindeno[7,1-bc]thiophen-5-yl)oxy)benzonitrile] | < 50 nM | < 50 nM | 50 to 249 nM
7 | N#Cc1cc(F)cc(Oc2ccc3c4c2C(F)CC4(O)CS3(=O)=O)c1 (centres unmarked) [Compound 7] | > 1000 nM | – | –
8 | CC1CC2(O)c3c(ccc(Oc4cc(F)cc(C#N)c4)c31)S(=O)(=O)C2(F)F (centres unmarked) [Compound 8, 3-((2,2-difluoro-2a-hydroxy-4-methyl-1,1-dioxido-2,2a,3,4-tetrahydroindeno[7,1-bc]thiophen-5-yl)oxy)-5-fluorobenzonitrile] | 50 to 249 nM | 50 to 249 nM | –
9 | C=C1CC2(O)c3c(ccc(Oc4cncc(F)c4)c31)S(=O)(=O)C2(F)F (centres unmarked) [Compound 9] | 250 to 1000 nM | 250 to 1000 nM | –
10 | N#Cc1cc(F)cc(Oc2ccc3c4c2C(F)CC4(F)C(F)(F)S3(=O)=O)c1 (centres unmarked) [Compound 10, 3-fluoro-5-((2,2,2a,4-tetrafluoro-1,1-dioxido-2,2a,3,4-tetrahydroindeno[7,1-bc]thiophen-5-yl)oxy)benzonitrile] | 250 to 1000 nM | – | –
11 | N#Cc1cc(F)cc(Oc2ccc3c4c2C(=O)CC4(O)C(F)(F)S3(=O)=O)c1 (centres unmarked) [Compound 11, 3-((2,2-difluoro-2a-hydroxy-1,1-dioxido-4-oxo-2,2a,3,4-tetrahydroindeno[7,1-bc]thiophen-5-yl)oxy)-5-fluorobenzonitrile] | 250 to 1000 nM | 250 to 1000 nM | –
12 | C=C1CC2(O)CS(=O)(=O)c3ccc(Oc4cc(F)cc(C#N)c4)c1c32 (centres unmarked) [Compound 12] | > 1000 nM | – | –
13 | C=C1CC2(O)c3c(ccc(Oc4cc(F)cc(C#N)c4)c31)S(=O)(=O)C2(F)F (centres unmarked) [Compound 13, 3-((2,2-difluoro-2a-hydroxy-4-methylene-1,1-dioxido-2,2a,3,4-tetrahydroindeno[7,1-bc]thiophen-5-yl)oxy)-5-fluorobenzonitrile] | < 50 nM | < 50 nM | < 50 nM
14 | C=C1CC2(O)c3c(ccc(Oc4cncc(C#N)c4)c31)S(=O)(=O)C2(F)F (centres unmarked) [Compound 14] | < 50 nM | 250 to 1000 nM | –
15 | N#Cc1cc(F)cc(Oc2ccc3c4c2[C@@H](F)C[C@]4(O)C(F)(F)S3(=O)=O)c1 [Compound 15] | < 50 nM | < 50 nM | < 50 nM
16 | N#Cc1cc(F)cc(Oc2ccc3c4c2C(F)C(F)C4(F)CS3(=O)=O)c1 (centres unmarked) [Compound 16] | > 1000 nM | – | –
17 | C=C1CC2(O)c3c(ccc(OCC(F)F)c31)S(=O)(=O)C2(F)F (centres unmarked) [Compound 17] | > 1000 nM | – | –
18 | N#Cc1cc(F)cc(Oc2ccc3c4c2CCC4C(F)(F)S3(=O)=O)c1 (centres unmarked) [Compound 18] | 50 to 249 nM | 250 to 1000 nM | –
19 | N#Cc1cncc(Oc2ccc3c4c2C(F)CC4(O)C(F)(F)S3(=O)=O)c1 (centres unmarked) [Compound 19] | 50 to 249 nM | 250 to 1000 nM | –
20 | N#Cc1cc(F)cc(Oc2ccc3c4c2C(F)C[C@@]4(O)C(F)(F)S3(=O)=O)c1 (some centres unmarked) [Compound 20] | > 1000 nM | – | –
